Results: patent publication US10414759B2, “Phenylthiazoles and uses thereof” (Purdue Research Foundation, priority 2017, dated 2019)
Converted amounts (≈) assume the structure as drawn. Like-named read-outs stand apart in the source and are kept apart here.

Assays:
[1] = test system: VRE ATCC 700221; assay: MIC/MBC clinical isolate panel (Table 3); assay type: cell-based, Enterococcus faecium; details: Enterococcus, Table 3, VRE ATCC 700221
Procedure: MRSA clinical isolates, and vancomycin-resistant Staphylococcus aureus (VRSA) strain were obtained through the Network of Antimicrobial Resistance in Staphylococcus aureus (NARSA) program. In addition, vancomycin-resistant Enterococcus faecium (VRE) strain was obtained from the ATCC. Bacteria were cultured in cation-adjusted Mueller Hinton broth in a 96-well plate. Compounds, using triplicate samples, were added to the plate and serially diluted. […] Plates were visually inspected and the MIC was categorized as the concentration at which no visible growth of bacteria was observed. The average of triplicate MIC determinations is reported.
The minimum inhibitory concentration (MIC) of tested compounds and control antibiotics were determined using the broth microdilution method in accordance with the recommendations contained in the Clinical and Laboratory Standards Institute guidelines, against methicillin-sensitive (ATCC 6538 and NRS107), methicillin-resistant (MRSA), and vancomycin-resistant (VRSA) Staphylococcus aureus, Staphylococcus epidermidis, Enterococcus faecalis, E. faecium, Listeria monocytogenes, and Streptococcus pneumoniae clinical isolates. A bacterial solution equivalent to 0.5 McFarland standard was prepared and diluted in cation-adjusted Mueller-Hinton broth (CAMHB) to achieve a bacterial concentration of about 5×10^5 CFU/mL and seeded in 96-well plates. Enterococcus faecium was diluted in brain heart infusion broth. Enterococcus faecalis, Streptococcus pneumonia and Listeria monocytogenes were diluted in tryptone soya broth (TSB). Compounds and control drugs were added in the first row of 96-well plates and serially diluted (to achieve a concentration gradient ranging from 128 to 1 μg/mL). Plates were then incubated aerobically at 37° C. for at least 18 hours. The minimum bactericidal concentration (MBC) of the active compounds was tested by plating 5 μL from wells with no growth onto Tryptic soy agar (TSA) plates.

[2] = test system: Caco-2 cells; assay: Caco-2 bidirectional permeability assay
[3] = Metabolic stability in human liver microsomes; assay type: in vitro ADME; details: pH 7.4, human liver microsomes
Procedure: The tested compounds were incubated in duplicate with human liver microsomes at 37° C. The reaction contained microsomal protein in 100 mM potassium phosphate, 2 mM NADPH, 3 mM MgCl2, pH 7.4. A control was run for each test agent omitting NADPH to detect NADPH-free degradation. At 0, 10, 20, 40, and 60 minutes, an aliquot was removed from each experimental and control reaction and mixed with an equal volume of ice-cold Stop Solution (methanol containing haloperidol, diclofenac, or other internal standard). Stopped reactions are incubated at least ten minutes at −20° C., and an additional volume of water was added. The samples were centrifuged to remove precipitated protein, and the supernatants were analyzed by LC/MS/MS to quantitate the remaining parent. Data are converted to % remaining by dividing by the time zero concentration value. Data are fit to a first-order decay model to determine half-life. Intrinsic clearance is calculated from the half-life and the protein concentrations: CLint=ln(2)/(T1/2 [microsomal protein]).

[4] = test system: MRSA (2658 RCMB); assay: MIC against MRSA (2658 RCMB), broth dilution; assay type: cell-based, Staphylococcus aureus
Procedure, shortened: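 Broth dilution in cation-adjusted Mueller-Hinton broth with an inoculum of about 5×10^5 CFU/mL (from a 0.5 McFarland suspension), using triplicate serial dilutions. MIC was the lowest concentration with no visible growth by visual inspection, reported as the mean of triplicates.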

[5] = Plasma pharmacokinetics after single oral dose in rats; assay type: in vivo, Sprague-Dawley (SD) rats
Procedure: This assay has been conducted at a credited bioequivalence center (http://www.grc-me.com/pk_pd.html). Pharmacokinetic studies were performed in male naïve Sprague-Dawley (SD) rats, (three animals) following Institutional Animal Care and Use Committee guidelines. Oral dosing was administered by gavage in a vehicle containing 5% ethanol, 45% PEG 400, and 50% water. Blood samples were collected over a 24 h period post dose into Vacutainer tubes containing EDTA-K2. Plasma was isolated, and the concentration of compound 17 in plasma was determined with LC/MS/MS after protein precipitation with acetonitrile.
Non-compartmental pharmacokinetic analysis was performed on plasma concentration data to calculate pharmacokinetic parameters using Kinetica® 2000 (release 4.4.1).

[6] = test system: NRS382 (MRSA USA100); assay: MIC/MBC clinical isolate panel (Table 3); assay type: cell-based, S. aureus; details: Staphylococcus aureus, Table 3, NRS382 (MRSA USA100)
Procedure: (§1) Bacteria were cultured in cation-adjusted Mueller Hinton broth in a 96-well plate. Compounds, using triplicate samples, were added to the plate and serially diluted. […] Plates were visually inspected and the MIC was categorized as the concentration at which no visible growth of bacteria was observed. The average of triplicate MIC determinations is reported.
(§2) A bacterial solution equivalent to 0.5 McFarland standard was prepared and diluted in cation-adjusted Mueller-Hinton broth (CAMHB) to achieve a bacterial concentration of about 5×10^5 CFU/mL and seeded in 96-well plates. Enterococcus faecium was diluted in brain heart infusion broth. Enterococcus faecalis, Streptococcus pneumonia and Listeria monocytogenes were diluted in tryptone soya broth (TSB).

[7] = test system: NRS119 (MRSA); assay: MIC/MBC clinical isolate panel (Table 3); assay type: cell-based, S. aureus; details: Staphylococcus aureus, Table 3, NRS119 (MRSA)
Procedure: as §1, §2

[8] = test system: NRS384 (MRSA USA300); assay: MIC/MBC clinical isolate panel (Table 3); assay type: cell-based, S. aureus; details: Staphylococcus aureus, Table 3, NRS384 (MRSA USA300)
Procedure: as §1, §2

[9] = test system: NRS123 (MRSA USA400); assay: MIC/MBC clinical isolate panel (Table 3); assay type: cell-based, S. aureus; details: Staphylococcus aureus, Table 3, NRS123 (MRSA USA400)
Procedure: as §1, §2

[10] = test system: NRS383 (MRSA USA200); assay: MIC/MBC clinical isolate panel (Table 3); assay type: cell-based, S. aureus; details: Staphylococcus aureus, Table 3, NRS383 (MRSA USA200)
Procedure: as §1, §2

[11] = test system: NRS72 (MSSA); assay: MIC/MBC clinical isolate panel (Table 3); assay type: cell-based, S. aureus; details: Staphylococcus aureus, Table 3, NRS72 (MSSA)
Procedure: as §1, §2

[12] = Table 6, single oral dose (30 mg/Kg) to rats
[13] = male, Sprague-Dawley, rat, plasma, Table 6, single oral dose (30 mg/Kg) to rats

SMILES: CCCCc1ccc(-c2nc(C)c(-c3ccnc(NN)n3)s2)cc1 [Compound 17, 2-(4-Butylphenyl)-5-(2-hydrazinopyrimidin-4-yl)-4-methylthiazole]
- MBC ([1]; read-out: MBC): 8 µg/mL (≈ 23.6 µM)
- MIC ([1]; read-out: MIC): 2 µg/mL (≈ 5.89 µM)
- Mean A→B Papp ([2]; Caco-2, apical to basolateral): 1.6 ×10⁻⁶ cm/s
- Mean B→A Papp ([2]; Caco-2, basolateral to apical): 2.8 ×10⁻⁶ cm/s
- Efflux ratio ([2]; Papp (B→A)/Papp (A→B)): 1.8
- microsomal CLint ([3]; NADPH omitted, read-out: NADPH-free Clint): 0.5 µL/min/mg
- half-life ([3]; NADPH omitted, read-out: NADPH-free t1/2): > 1 h
- microsomal CLint ([3]; with NADPH, read-out: NADPH-dependent CLint): 3 to 7.5 µL/min/mg
- half-life ([3]; with NADPH, read-out: NADPH-dependent t1/2): 5.13 h
- improvement in MIC value compared with lead compound 1 ([4]; MRSA (2658 RCMB)): 12 fold
- MIC ([4]; Staphylococcus aureus, Table 1, MRSA (2658 RCMB), read-out: MIC ± SD): 0.4 µg/mL (≈ 1.18 µM)
- antibacterial (anti-MRSA) activity, in words ([4]; Table 1): more potent than vancomycin
- MIC ± SD ([4]; Table 1, MRSA (2658 RCMB)): 0.40 ± 0.0 µg/mL (≈ 1.18 µM)
- thalf [5, 12]: 8.24 h
- λz [5, 12]: 0.19 h⁻¹
- MRT ([5]; male, Sprague-Dawley, rat, plasma, po, text b112, SD rats, 50 mg/Kg orally, read-out: in vivo mean residence time (MRT)): ~8 h
- AUC [5, 13]: 100000 ng·h/mL
- AUC(0-t) [5, 13]: 83200 ng·h/mL
- Tmax [5, 13]: 4.67 h
- MRT ([5]; male, Sprague-Dawley, rat, plasma, Table 6, single oral dose (30 mg/Kg) to rats, read-out: MRT (mean residence time)): 7.74 h
- Cmax ([5]; male, Sprague-Dawley, rat, po, text b112, SD rats, 50 mg/Kg orally, plasma): 9300 ng/mL
- Cmax ([5]; male, Sprague-Dawley, rat, Table 6, single oral dose (30 mg/Kg) to rats, plasma): 9330 ng/mL
- MBC [6]: 4 µg/mL (≈ 11.8 µM)
- MIC ([6]; read-out: MIC): 2 µg/mL (≈ 5.89 µM)
- MBC [7]: 2 µg/mL (≈ 5.89 µM)
- MIC ([7]; read-out: MIC): 2 µg/mL (≈ 5.89 µM)
- MBC [8]: 2 µg/mL (≈ 5.89 µM)
- MIC ([8]; read-out: MIC): 2 µg/mL (≈ 5.89 µM)
- MBC [9]: 2 µg/mL (≈ 5.89 µM)
- MIC ([9]; read-out: MIC): 2 µg/mL (≈ 5.89 µM)
- MBC [10]: 2 µg/mL (≈ 5.89 µM)
- MIC ([10]; read-out: MIC): 2 µg/mL (≈ 5.89 µM)
- MBC [11]: 8 µg/mL (≈ 23.6 µM)
- MIC ([11]; read-out: MIC): 2 µg/mL (≈ 5.89 µM)
